Values joined by “and” are separate entries in the source; they are usually repeats but may differ in a detail not shown here. Equal entries are not always repeated.
Legend:
[1] = molecular target: T1, recombinant bHLH-MYC protein (Homo sapiens, UniProt P01106); experiment: Direct binding to MYC by microscale thermophoresis (MST); conditions: compound 200 μM, labeled MYC 25 nM
T1 construct: The recombinant bHLHZ-Myc protein carrying an aminoterminal His6-tag; made in house; host or cells: bacteria
T1 sequence (P01106 368-452 limits assumed): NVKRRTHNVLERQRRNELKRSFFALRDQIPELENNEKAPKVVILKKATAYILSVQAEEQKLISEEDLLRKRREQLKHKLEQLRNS
Method: To investigate the capacity of MYC degraders to directly bind to MYC, microscale thermophoresis (MST) experiments were performed using recombinant bHLH-MYC protein. MST is a very sensitive, recently developed method based on the shift of fluorescent molecules moving in a temperature gradient that can be perturbed by interactions with other molecules. In this binding assay, a His6-tagged bHLH-MYC protein was fluorescently labeled via its hexa-histidine tag and subjected to MST measurement in the absence and in the presence of MYC degraders. All compounds tested shifted MYC thermophoresis (Figure 4), as shown by normalized fluorescence values, a clear indication that they bound directly to MYC. MST experiments were also run under identical conditions using two reference Myc inhibitors as positive controls: the biphenyl pyrazole MYCi361 and a thiazolidinone derivative, 10058-F4. Both are well-characterized MYC binders: The first one has been used as a POI ligand for the PROTACs designed and synthesized in this work, and the latter is widely known to inhibit MYC by specifically disrupting the MYC–Max complex formation.
Figure 4 Assay of direct binding to MYC by microscale thermophoresis (MST): MST of fluorescently labeled MYC (25 nM) mixed with several MYC degraders (200 μM) or the solvent alone (DMSO). MST of MYC binders 10058-F4 and MYCi361 used as positive controls. Data are shown as mean ± SEM.
Microscale thermophoresis (MST) assay was used to determine whether PROTACs bind directly to MYC. The recombinant bHLHZ-Myc protein carrying an aminoterminal His6-tag was expressed in bacteria from a plasmid kindly provided by George Sianidis (BRFAA, Greece) and purified, as previously described,[33] with minor modifications. […] MST was measured using a Monolith NT.115Pico with a red filter at an ambient temperature of 25 °C. […] Results were analyzed using the software provided with the Monolith instrument. Data are reported as ΔFnorm, which results from subtracting the normalized fluorescence value (Fnorm) of MYC in the absence of PROTAC from Fnorm in excess of PROTAC (bound state).

[2] = Pharmacokinetic study in mice; assay type: in vivo, mice (male C57BL/6J); conditions: for adverse effects during the study / level in blood circulation 24 h after treatment / AUCs: i.p.; for adverse effects during the study: 10 mg/kg single dose; for level in blood circulation 24 h after treatment / AUCs / concentration at 8 h / Cmax / Tmax / half-life: 10 mg/kg; for AUCs / Cmax / Tmax: blood; for concentration at 8 h / Cmax / Tmax / half-life: male, C57BL/6J, mouse, whole blood; for concentration at 8 h: read-out: average blood concentration 8 h after administration; for half-life: noncompartmental analysis, read-out: T ½ (converted)
Method: In order to assess the efficacy potential of MYC degraders in animal models, pharmacokinetic studies were carried out in mice (Figure 6A,B). Following intraperitoneal (i.p.) administration of selected compounds, CSI86, CSI135, and CSI107 at 10 mg/kg, blood samples were collected at different time points until 24 h post-drug administration, and concentrations were determined via LC-MS/MS.
Animals that were used for the study were male C57BL/6J (n = 7) at the age of 6–8 weeks (average weight = 20–25 g). Each PROTAC was administered at 10 mg/kg, and the dosing volume per animal was 200 μL. The vehicle for CSI86, CSI107, and […], respectively, was corn oil/10% DMSO, and the administration was i.p. CSI86 was also administered PO at the same dose using 0.5% carboxymethyl cellulose (CMC) as a vehicle in water. Whole blood from two control mice was used for the preparation of standard solutions.
A serial tail bleeding protocol was performed for the collection of blood samples. Blood samples (10 μL) were collected at selected time points (15 min, 30 min, 1 h, 2 h, 4 h, 6 h, 8 h, and 24 h) in tubes containing 40 μL of sodium citrate (0.1 M, pH 4.5) and stored at −80 °C until the day of the analysis.
For the calculation of T1/2, a noncompartmental pharmacokinetics analysis was used via the online application “Dash App Gallery Pharmacokinetics Calculator.” […]
Characterization and Quantitative Analysis of PROTACs by Liquid Chromatography-Mass Spectrometry […]
For detection and quantification of the PROTACs in medium and biological samples, LC-MS/MS methodologies were developed. Mass spectrometry was performed on a Triple Quad 5500 + LC-MS/MS system fitted with a TurboIonSpray source and a hybrid triple quadrupole/linear ion trap mass spectrometer. HPLC was performed using an Exion LC AB Sciex system with a temperature-controlled column compartment and an autosampler. A C8 column (SunFire 2.1 x 50 mm, 3.5 μm) (Waters, MA, USA) was used at a flow rate of 0.3 mL/min for the separation of the analytes of interest. The mobile phase consisted of A: 10% ACN, 90% water, 2 mM ammonium acetate, and 0.1% FA and B: 90% ACN, 10% water, 2 mM ammonium acetate, and 0.1% FA, the injection volume was 10 μL. Elution of CSI86 PROTAC was achieved by a gradient of solvent A – solvent B described as follows: 100% A (0.0 - 0.5 min), 20% A (1.0 – […]
3.0 min), 100% A (3.1 – 5.1 min).
1040.5, for the CSI86 PROTAC with exact mass of 1039 (g/mol). Elution of CSI107 PROTAC was achieved by a gradient of solvent A – solvent B described as follows: 80% A (0.0 - 0.5 min), 15% A (1.5 – 3.5 min), […]
the CSI107 PROTAC with an exact mass of 1053 (g/mol).
Table S1: Optimized parameters for the LC-MS/MS analysis. […]
Detection protein degraders in mouse blood by LC-MS/MS analysis
For the LC-MS/MS analysis of the PK study, sample preparation was performed as follows.
Double Blank Blank + IS Standards
50 μL blood 50 μL blood 50 μL blood
10 μL ACN: H 2O 10 μL ACN: H 2O 10 μL std
300 μL of cold ACN were added in all samples for protein precipitation, followed by centrifugation at 13000 rpm for 10 min. The supernatant was transferred in glass tubes and evaporated at 55 °C for approximately 1 h. The samples were reconstituted in Mobile Phase A (90% H2O-10% ACN, 0.1% FA, 2 mM ammonium acetate) and the circulating amount of PROTAC was determined by LC-MS/MS analysis using a stable internal standard such as Warfarin or BETd-260 respectively. Gradient (20% A – 80% B) LC-MS/MS conditions were applied and the concentration range for the standard curve was 1 - 10.000 ng/mL. […]

direct binding to MYC (shift of MYC thermophoresis) [1] | AUCs [2] | concentration at 8 h ([2]; ip) | Cmax ([2]; ip) | Tmax ([2]; ip) | half-life ([2]; ip) | Cmax ([2]; oral gavage (PO)) | Structure (SMILES) | adverse effects during the study [2] | level in blood circulation 24 h after treatment [2]
equally potent | 8,4 h x μg/mL | ~500 ng/mL and ~480 nM | 713 ng/mL and 686 nM | 2 h | 7.4 h | < 100 ng/mL | Cc1ncsc1-c1ccc(CNC(=O)[C@@H]2C[C@@H](O)CN2C(=O)[C@@H](NC(=O)CCC(=O)NCCCOc2ccc(-c3cc(C(F)(F)F)nn3C)c(O)c2-c2cc(C(F)(F)F)cc(C(F)(F)F)c2)C(C)(C)C)cc1 [CSI86] | no adverse effects were reported | evident levels of the degrader being present in blood circulation
equally potent | 3,4 h x μg/mL | ~150 ng/mL and ~140 nM | 413 ng/mL and 392 nM | 2 h | 5 ± 0.5 h | – | Cc1ncsc1-c1ccc(CNC(=O)[C@@H]2C[C@@H](O)CN2C(=O)[C@@H](NC(=O)CCCC(=O)NCCCOc2ccc(-c3cc(C(F)(F)F)nn3C)c(O)c2-c2cc(C(F)(F)F)cc(C(F)(F)F)c2)C(C)(C)C)cc1 [CSI107] | no adverse effects were reported | evident levels of the degrader being present in blood circulation
equally potent | 6 h x μg/mL | – | 699 ng/mL and 636 nM | 2 h | 7.6 h | – | Cc1ncsc1-c1ccc(CNC(=O)[C@@H]2C[C@@H](O)CN2C(=O)[C@@H](NC(=O)COCCOCC(=O)NCCCOc2ccc(-c3cc(C(F)(F)F)nn3C)c(O)c2-c2cc(C(F)(F)F)cc(C(F)(F)F)c2)C(C)(C)C)cc1 [CSI135] | no adverse effects were reported | evident levels of the degrader being present in blood circulation
